Measured values as given in the OligoGym collection.
Values joined by “and” are separate entries in the source; they are usually repeats but may differ in a detail not shown here. Identical values can stand only once. After the bases stand the sugars from the 5' end (letter, count) and the backbone: PS all phosphorothioate, else s phosphorothioate and o phosphodiester by linkage. HELM strings list units from the 5' end as sugar, base in round brackets, then linkage (d deoxyribose, r ribose, m 2'-O-methyl, p phosphodiester). Methylation of C is not given here. [moe] = 2'-O-(2-methoxyethyl) (MOE); [cEt] = constrained ethyl (cEt); [sp] = phosphorothioate linkage; e = 2'-O-(2-methoxyethyl) (MOE); k = constrained ethyl (cEt); d = 2'-deoxy (DNA)

How the values were obtained:
KRAS = details: ASO
HBV = details: ASO

Row | Substance | target mRNA inhibition (KRAS; A431, 2 µM) | also measured
1 | CAGTGTTAAGAGAACT (sugars kdddddddddkekeke, PS) | 40% | 
2 | TCCATTTATGTGACTA (sugars kddddddddddkekek, PS) | 38% | 
3 | TTAATTACTTATGCAG (sugars k3 d10 k3, PS) | 32% | 
4 | TTACTTATGCAGAGAA (sugars k3 d10 k3, PS) | 46% | 
5 | GTGTTTATGCAATGTT (sugars kddddddddddkekek, PS) | 53% | 
6 | GTGTTTATGCAATGTT (sugars kdddddddddkekeke, PS) | 41% | 
7 | TGTTTAAAAAAAAAAT (sugars k3 d10 k3, PS) | 2% | 
8 | CAGTGTGACTCAGTTA (sugars kkddddddddddkeke, PS) | 51% | 
9 | AGATTGTGCTGAGCTT (sugars kddddddddddkekek, PS) | 7% | 
10 | CTTTTTGACAAATGGA (sugars k3 d10 k3, PS) | 22% | 
11 | GGTGTAACATAGGTTA (sugars k3 d10 k3, PS) | 55% and 50% | target mRNA inhibition (KRAS; A431, 0.185 µM): 7%; target mRNA inhibition (KRAS; A431, 0.556 µM): 29%; target mRNA inhibition (KRAS; A431, 1.667 µM): 47%; target mRNA inhibition (KRAS; A431, 5 µM): 67%
12 | TCCATTTATGTGACTA (sugars kkkddddddddkekek, PS) | 0% | 
13 | TGCTGTGAAACTCTCT (sugars kkddddddddkekekk, PS) | 5% | 
14 | TGATTTGTCAGCAGGA (sugars kkkddddddddkekek, PS) | 41% | 
15 | TCTGAATTAGTCTCCA (sugars k3 d10 k3, PS) | 62% and 50% | target mRNA inhibition (KRAS; A431, 0.185 µM): 0%; target mRNA inhibition (KRAS; A431, 0.556 µM): 26%; target mRNA inhibition (KRAS; A431, 1.667 µM): 48%; target mRNA inhibition (KRAS; A431, 5 µM): 68%
16 | AGATTGTGCTGAGCTT (sugars k3 d9 k3 e1, PS) | 42% | 
17 | AGGAGTCTTTATAGTA (sugars kkddddddddkekekk, PS) | 21% | 
18 | CCATGCTGTGAAACTC (sugars k3 d10 k3, PS) | 26% | 
19 | GGTAAAAGCTAACAGT (sugars k3 d10 k3, PS) | 49% | 
20 | ATGGTGTAACATAGGT (sugars kdddddddddkekeke, PS) | 39% | 
21 | ATGGTGTAACATAGGT (sugars kkkdddddddddkeke, PS) | 43% | 
22 | TGTGCAATGGTGACAA (sugars k3 d10 k3, PS) | 28% | 
23 | TATAATAATCCCCATT (sugars k3 d10 k3, PS) | 7% | 
24 | GATTGTGCTGAGCTTG (sugars kkdddddddddkekek, PS) | 45% | 
25 | ACAGATTGTGCTGAGC (sugars k3 d10 k3, PS) | 46% | 
26 | CTCTATGAAAGCTCAA (sugars k3 d10 k3, PS) | 39% | 
27 | AGTGATTAGGTCAAAT (sugars kkddddddddkekekk, PS) | 46% | 

Row | Substance | target mRNA inhibition (KRAS; A431, 2 µM) | also measured
28 | ATCTTTTAATGTCACA (sugars k3 d10 k3, PS) | 58% | target mRNA inhibition (KRAS; A431, 0.037 µM): 74%; target mRNA inhibition (KRAS; A431, 5 µM): 97% and 96%; target mRNA inhibition (KRAS; NCI-H460, 0.037 µM): 65.3%
29 | GTAAAAGCTAACAGTC (sugars k3 d10 k3, PS) | 21% | 
30 | GTTTATGCAATGTTAA (sugars kddddddddddkekek, PS) | 37% | 
31 | CCATTCAAAGTTCACA (sugars k3 d9 k3 e1, PS) | 41% | 
32 | TGCTGTGAAACTCTCT (sugars kkdddddddddkekek, PS) | 0% | 
33 | TGCAATGTTAATTTAA (sugars k3 d10 k3, PS) | 13% | 
34 | ATGCTGTGAAACTCTC (sugars kkddddddddkekekk, PS) | 25% | 
35 | CCAGTGATACTTTCAC (sugars kkddddddddkekekk, PS) | 17% | 
36 | TAGTGATTAGGTCAAA (sugars kkdddddddddkdkdk, PS) | 25% | 
37 | TGCTGTGAAACTCTCT (sugars kkddddddddddkeke, PS) | 30% | 
38 | GGAGTCTTTATAGTAA (sugars kkddddddddkekekk, PS) | 25% | 
39 | AATGTCACAAGCAGAA (sugars k3 d10 k3, PS) | 49% | 
40 | CCATTTATGTGACTAG (sugars kkkddddddddkekek, PS) | 36% | 
41 | AGATATCCACAGCAGC (sugars k3 d10 k3, PS) | 58% | 
42 | AACGAGAATGGATATT (sugars k3 d10 k3, PS) | 4% | 
43 | TTATGCAATGTTAATT (sugars k3 d10 k3, PS) | 3% | 
44 | TTGATTTGTCAGCAGG (sugars kkdddddddddkekek, PS) | 23% and 22% | 
45 | CAGACTTGAAAAGTGT (sugars k3 d10 k3, PS) | 24% | 
46 | ATTACTTTTTGACAAA (sugars k3 d10 k3, PS) | 0% | 
47 | RNA1{[moe](A)[sp].[moe](T)[sp].d(G)[sp].d(A)[sp].d(G)[sp].d(G)[sp].d(C)[sp].d(A)[sp].d(T)[sp].d(A)[sp].d(G)[sp].[moe](C)[sp].[moe](A)[sp].[moe](G)[sp].[moe](C)[sp].[moe](A)[sp].[moe](G)}$$$$V2.0 |  | target mRNA inhibition (HBV; HepG2, 0.07 µM): 64%
48 | RNA1{[moe](G)[sp].[moe](C)[sp].d(A)[sp].d(G)[sp].d(A)[sp].d(G)[sp].d(G)[sp].d(T)[sp].d(G)[sp].d(A)[sp].d(A)[sp].[moe](G)[sp].[moe](C)[sp].[moe](G)[sp].[moe](A)[sp].[moe](A)[sp].[moe](G)}$$$$V2.0 |  | target mRNA inhibition (HBV; HepG2, 0.07 µM): 20% and 40%
49 | RNA1{[moe](A)[sp].[moe](G)[sp].[moe](T)[sp].d(T)[sp].d(C)[sp].d(C)[sp].d(G)[sp].d(C)[sp].d(A)[sp].d(G)[sp].d(T)[sp].d(A)[sp].[moe](T)[sp].[moe](G)[sp].[moe](G)[sp].[moe](A)}$$$$V2.0 |  | target mRNA inhibition (HBV; HepG2, 0.07 µM): 46% and 58%
50 | RNA1{[moe](A)[sp].[cEt](G)[sp].[cEt](T)[sp].d(T)[sp].d(C)[sp].d(C)[sp].d(G)[sp].d(C)[sp].d(A)[sp].d(G)[sp].d(T)[sp].d(A)[sp].d(T)[sp].[cEt](G)[sp].[cEt](G)[sp].[moe](A)}$$$$V2.0 |  | target mRNA inhibition (HBV; HepG2, 0.0092593 µM): 12%; target mRNA inhibition (HBV; HepG2, 0.0277778 µM): 25%; target mRNA inhibition (HBV; HepG2, 0.0833333 µM): 73%; target mRNA inhibition (HBV; HepG2, 0.25 µM): 84%
51 | RNA1{[moe](A)[sp].[moe](G)[sp].[moe](A)[sp].d(A)[sp].d(G)[sp].d(T)[sp].d(C)[sp].d(C)[sp].d(A)[sp].d(C)[sp].d(C)[sp].d(A)[sp].[moe](C)[sp].[moe](G)[sp].[moe](A)[sp].[moe](G)[sp].[moe](T)}$$$$V2.0 |  | target mRNA inhibition (HBV; HepG2, 0.07 µM): 41% and 44%
52 | RNA1{[moe](A)[sp].[moe](A)[sp].[moe](G)[sp].d(C)[sp].d(G)[sp].d(A)[sp].d(A)[sp].d(G)[sp].d(T)[sp].d(G)[sp].d(C)[sp].d(A)[sp].[moe](C)[sp].[moe](A)[sp].[moe](C)[sp].[moe](G)}$$$$V2.0 |  | target mRNA inhibition (HBV; HepG2, 0.07 µM): 74% and 64%
53 | RNA1{[moe](C)[sp].[moe](C)[sp].[moe](A)[sp].[moe](A)[sp].[moe](T)[sp].d(T)[sp].d(T)[sp].d(A)[sp].d(T)[sp].d(G)[sp].d(C)[sp].d(C)[sp].d(T)[sp].d(A)[sp].[moe](C)[sp].[moe](A)[sp].[moe](G)}$$$$V2.0 |  | target mRNA inhibition (HBV; HepG2, 0.07 µM): 25% and 9%
54 | RNA1{[moe](C)[sp].[moe](G)[sp].[moe](G)[sp].d(G)[sp].d(C)[sp].d(A)[sp].d(A)[sp].d(C)[sp].d(A)[sp].d(T)[sp].d(A)[sp].d(C)[sp].[moe](C)[sp].[moe](T)[sp].[moe](T)[sp].[moe](G)}$$$$V2.0 |  | target mRNA inhibition (HBV; HepG2, 0.07 µM): 56% and 45%
